In paper PMC314469, “Protein Interaction Networks by Proteome Peptide Scanning” (PLoS Biology, 2004):

Test system: Myo5 SH3 domain
Experiment: SPOT analysis of cellulose-bound peptides (WISE), Myo5 SH3 domain (Dataset S4)
Assay type: binding, Saccharomyces cerevisiae
Settings: for The normalized value in BLU units: Myo5 SH3 domain
[1] = SPOT analysis of cellulose-bound peptides probed with Myo5 SH3 domain, normalized value
[2] = SPOT analysis of cellulose-bound 14-mer yeast proteome peptides, normalized value, mean where the peptide was synthesized more than once
[3] = SPOT analysis of membrane-bound peptides, normalized value (see methods)
[4] = SPOT analysis of membrane-synthesized peptides probed with Myo5 SH3 domain, normalized value

Sequence: NAIEMALPNDPYPA
- The normalized value in BLU units (SPOT analysis, Myo5 SH3) [1]: 87.2 BLU

Sequence: NALGLDPPPSPEDP
- The normalized value in BLU units (SPOT analysis, Myo5 SH3) [1]: 240.8 BLU

Sequence: NALKLIHPFMPFIS
- The normalized value in BLU units [2]: 170.3 BLU

Sequence: NAPERAVPILPPRN
- The normalized value in BLU units [2]: 740.9 BLU

Sequence: NAPPRIFPKAPIYG
- The normalized value in BLU units [3]: 168.1 BLU

Sequence: NAQLRKTPLEPGLE
- The normalized value in BLU units [2]: 175.9 BLU

Sequence: NASAMPAPYMPYYY
- The normalized value in BLU units (SPOT analysis, Myo5 SH3) [1]: 225.5 BLU

Sequence: NASLLRDPSAPYAH
- The normalized value in BLU units (SPOT analysis, Myo5 SH3) [1]: 133.8 BLU

Sequence: NDDKKTEPDKPAFS
- The normalized value in BLU units [3]: 140.5 BLU

Sequence: NDLVKRFPEQPPLR
- The normalized value in BLU units [3]: 21447.2 BLU

Sequence: NDMAKPLPTPPTAE
- The normalized value in BLU units (SPOT analysis, Myo5 SH3) [4]: 113.6 BLU

Sequence: NDNEKKKPSSPTAA
- The normalized value in BLU units (SPOT analysis, Myo5 SH3) [4]: 98.5 BLU

Sequence: NEAPMLSPQRPYST
- The normalized value in BLU units [2]: 111.3 BLU

Sequence: NEDTFLPPPPPPPS
- The normalized value in BLU units (SPOT analysis, Myo5 SH3) [1]: 20439.9 BLU

Sequence: NEFAKFAPDLPVLK
- The normalized value in BLU units [3]: 135.1 BLU

Sequence: NEFLHFDPHIPQPA
- The normalized value in BLU units (SPOT analysis, Myo5 SH3) [1]: 156.4 BLU

Sequence: NEGDLYPPEQPGVD
- The normalized value in BLU units (SPOT analysis, Myo5 SH3) [1]: 80.1 BLU

Sequence: NEHGMNAPSVPEFI
- The normalized value in BLU units [2]: 344.1 BLU

Sequence: NEIELLRPRSPVQK
- The normalized value in BLU units (SPOT analysis, Myo5 SH3) [1]: 125.6 BLU

Sequence: NEKLHETPHLPSPV
- The normalized value in BLU units (SPOT analysis, Myo5 SH3) [1]: 109.3 BLU

Sequence: NELIKQGPKRPTSA
- The normalized value in BLU units (SPOT analysis, Myo5 SH3) [4]: 175.5 BLU

Sequence: NELVKRFPGHPPLR
- The normalized value in BLU units [3]: 300.5 BLU

Sequence: NESEKSSPWSPYKV
- The normalized value in BLU units [3]: 221.5 BLU

Sequence: NETKLKFPTLPEVP
- The normalized value in BLU units [2]: 254.7 BLU

Sequence: NFLKHYLPSSPGDI
- The normalized value in BLU units (SPOT analysis, Myo5 SH3) [1]: 172.3 BLU

Sequence: NFPQRMMPPPPGLV
- The normalized value in BLU units (SPOT analysis, Myo5 SH3) [4]: 617.7 BLU

Sequence: NFPSLIDPHVPTYG
- The normalized value in BLU units [2]: 97.4 BLU

Sequence: NGKDKSRPPRPPPK
- The normalized value in BLU units [3]: 2621.2 BLU

Sequence: NGMPRRIPDYPDAF
- The normalized value in BLU units (SPOT analysis, Myo5 SH3) [4]: 223.3 BLU

Sequence: NGTWKYNPTVPNEL
- The normalized value in BLU units [3]: 172.6 BLU

Sequence: NIFQKQLPKMPKEY
- The normalized value in BLU units (SPOT analysis, Myo5 SH3) [4]: 276.2 BLU

Sequence: NIPTKSPPKSPKHK
- The normalized value in BLU units (SPOT analysis, Myo5 SH3) [4]: 12462.9 BLU

Sequence: NITEKSPPKSPKHK
- The normalized value in BLU units [3]: 292.3 BLU

Sequence: NKIPKHLPADPIFS
- The normalized value in BLU units [2]: 277.9 BLU

Sequence: NKPKRKRPAPPKKK
- The normalized value in BLU units (SPOT analysis, Myo5 SH3) [4]: 872.0 BLU

Sequence: NLAPFTQPDFPFQT
- The normalized value in BLU units [2]: 81.4 BLU

Sequence: NLHGYGHPNPPNEK
- The normalized value in BLU units [2]: 216.6 BLU

Sequence: NLKTKSHPEVPRLD
- The normalized value in BLU units (SPOT analysis, Myo5 SH3) [4]: 362.8 BLU

Sequence: NLLSLENPVVPSHY
- The normalized value in BLU units (SPOT analysis, Myo5 SH3) [1]: 75.6 BLU

Sequence: NLSLRYAPNLPPVI
- The normalized value in BLU units (SPOT analysis, Myo5 SH3) [4]: 778.6 BLU

Sequence: NLYQRTTPAGPDPS
- The normalized value in BLU units [2]: 114.4 BLU

Sequence: NNLKKRPPTAPQRK
- The normalized value in BLU units [3]: 418.9 BLU

Sequence: NNSTRPIPAIPMDL
- The normalized value in BLU units (SPOT analysis, Myo5 SH3) [4]: 247.2 BLU

Sequence: NPFPFPIPEIPSTQ
- The normalized value in BLU units [2]: 86.5 BLU

Sequence: NPFVRINPNRPEAA
- The normalized value in BLU units (SPOT analysis, Myo5 SH3) [4]: 275.9 BLU

Sequence: NPGSMSMPGVPTSM
- The normalized value in BLU units (SPOT analysis, Myo5 SH3) [1]: 189.7 BLU

Sequence: NPIPKSVPLHPKSG
- The normalized value in BLU units [3]: 363.8 BLU

Sequence: NPLYWLLPSHPYTI
- The normalized value in BLU units (SPOT analysis, Myo5 SH3) [1]: 165.0 BLU

Sequence: NPMQKPVPFVPVLD
- The normalized value in BLU units (SPOT analysis, Myo5 SH3) [4]: 420.2 BLU

Sequence: NPQSLARPPPPKRI
- The normalized value in BLU units [2]: 247.6 BLU

Sequence: NQIARQIPFQPWYL
- The normalized value in BLU units [3]: 247.7 BLU

Sequence: NQIARQIPYQPWYL
- The normalized value in BLU units (SPOT analysis, Myo5 SH3) [4]: 163.5 BLU

Sequence: NRANKYDPKGPIYN
- The normalized value in BLU units [3]: 205.0 BLU

Sequence: NRKQRSIPLSPIVP
- The normalized value in BLU units [3]: 490.7 BLU

Sequence: NSFRKILPQEPEIW
- The normalized value in BLU units [3]: 235.4 BLU

Sequence: NSFSKNDPNFPILK
- The normalized value in BLU units [3]: 160.5 BLU

Sequence: NSGEKIYPQEPPIS
- The normalized value in BLU units [2]: 111.7 BLU

Sequence: NSNVRIPPTVPSKI
- The normalized value in BLU units [3]: 423.1 BLU

Sequence: NSTVRRKPHSPNKK
- The normalized value in BLU units (SPOT analysis, Myo5 SH3) [4]: 955.5 BLU

Sequence: NSVIRGCPGLPDTL
- The normalized value in BLU units (SPOT analysis, Myo5 SH3) [4]: 150.8 BLU

Sequence: NTIIKFDPGRPIYN
- The normalized value in BLU units [3]: 271.8 BLU

Sequence: NTIIKLFPYIPIPV
- The normalized value in BLU units [3]: 203.7 BLU

Sequence: NTINKSNPQGPSDN
- The normalized value in BLU units (SPOT analysis, Myo5 SH3) [4]: 76.2 BLU

Sequence: NTLLKVVPQEPTAV
- The normalized value in BLU units (SPOT analysis, Myo5 SH3) [4]: 154.4 BLU

Sequence: NTVEKLQPGLPVII
- The normalized value in BLU units [3]: 279.7 BLU

Sequence: NVLLKAKPNDPAAT
- The normalized value in BLU units [3]: 155.5 BLU

Sequence: NYHHRETPPPPPSN
- The normalized value in BLU units (SPOT analysis, Myo5 SH3) [4]: 317.8 BLU

Sequence: PANPKILPKIPSGA
- The normalized value in BLU units (SPOT analysis, Myo5 SH3) [4]: 164.4 BLU

Sequence: PAPPPPPPPPPPP
- The normalized value in BLU units (SPOT analysis, Myo5 SH3) [1]: 53285 BLU

Sequence: PCKKKSKPKVPAKN
- The normalized value in BLU units [3]: 579.8 BLU

Sequence: PDLNKRPPREPIEF
- The normalized value in BLU units (SPOT analysis, Myo5 SH3) [4]: 192.4 BLU
